The results in this text go back to patent US20210053957A1, “HERBICIDAL COMPOUNDS” (SYNGENTA PARTICIPATIONS AG, priority 2018, published 2021).

Common to all, as to assay: Post-emergence efficacy, glasshouse spray test
What all share (type): in vivo

For assay [1], the system named is Amaranthus palmeri (AMAPA). The note with it: Application Rate 500 g/Ha, evaluated after 13 days; for pest or weed control at 500 g/ha: Amaranthus palmeri, post-emergence, 312 h, read-out: Control of weed species after post-emergence application, AMAPA (100=total damage to plant; 0=no damage to plant). Put shortly:
(§1)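 14-d-old seedlings in standard soil; foliar spray; glasshouse 24/16° C, 14 h light, 65% RH, watered twice daily. 50 g/l stock in IF50/acetone, diluted with 0.25% or 1% Empicol ESC70 + 1% ammonium sulphate. Visual score 0–100 at 13 days.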

The next assay deals with Eleusine indica (ELEIN). The following applies: Application Rate 500 g/Ha, evaluated after 13 days; for pest or weed control at 500 g/ha: Eleusine indica, post-emergence, 312 h, read-out: Control of weed species after post-emergence application, ELEIN (100=total damage to plant; 0=no damage to plant). The method in brief: as §1
The next assay concerns Lolium perenne (LOLPE). The following applies: Application Rate 500 g/Ha, evaluated after 13 days; for pest or weed control at 500 g/ha: Lolium perenne, post-emergence, 312 h, read-out: Control of weed species after post-emergence application, LOLPE (100=total damage to plant; 0=no damage to plant). The method in brief:
as §1

Assay [2] deals with Chenopodium album (CHEAL). The note with it: Application Rate 500 g/Ha, evaluated after 13 days; for pest or weed control at 500 g/ha: Chenopodium album, post-emergence, 312 h, read-out: Control of weed species after post-emergence application, CHEAL (100=total damage to plant; 0=no damage to plant). Put shortly: as §1
In assay [3] the test system is Euphorbia heterophylla (EPHHL). The note with it: Application Rate 500 g/Ha, evaluated after 13 days; for pest or weed control at 500 g/ha: Euphorbia heterophylla, post-emergence, 312 h, read-out: Control of weed species after post-emergence application, EPHHL (100=total damage to plant; 0=no damage to plant). The method in brief:
as §1

The subject of assay [4] is Echinochloa crus-galli (ECHCG). The note with it: Application Rate 500 g/Ha, evaluated after 13 days; for pest or weed control at 500 g/ha: Echinochloa crus-galli, post-emergence, 312 h, read-out: Control of weed species after post-emergence application, ECHCG (100=total damage to plant; 0=no damage to plant). Put shortly:
as §1

Assay [5] deals with Ipomoea hederacea (IPOHE). The following applies: Application Rate 500 g/Ha, evaluated after 13 days; for pest or weed control at 500 g/ha: Ipomoea hederacea, post-emergence, 312 h, read-out: Control of weed species after post-emergence application, IPOHE (100=total damage to plant; 0=no damage to plant). Put shortly:
as §1

The next assay concerns Setaia fabei (SETFA). The note with it: Application Rate 500 g/Ha, evaluated after 13 days; for pest or weed control at 500 g/ha: Setaria faberi, post-emergence, 312 h, read-out: Control of weed species after post-emergence application, SETFA (100=total damage to plant; 0=no damage to plant). The method in brief:
as §1

Assay [6] relates to Digitaria sanguinalis (DIGSA). The following applies: Application Rate 500 g/Ha, evaluated after 13 days; for pest or weed control at 500 g/ha: Digitaria sanguinalis, post-emergence, 312 h, read-out: Control of weed species after post-emergence application, DIGSA (100=total damage to plant; 0=no damage to plant). Put shortly: as §1

Take `Nc1nnc(-c2cc[n+](CCS(=O)(=O)[O-])nc2)s1` [Compound A65]: the pest or weed control at 500 g/ha in assay [1] is 80%; in the assay with Eleusine indica (ELEIN) it was 100%; in the assay with Lolium perenne (LOLPE) it was 90%; in assay [2] it was 70%; in assay [3] it was 90%; in assay [4], 60%. The figures for the pest or weed control at 500 g/ha (in assay [5]; with Setaia fabei (SETFA); in assay [6]) were 60%, 100% and 100%, respectively.
Regarding `O=S(=O)([O-])OCC[n+]1ccc(-c2ncco2)cn1` [Compound A67], the pest or weed control at 500 g/ha in assay [1] came to 100%; in the assay on Eleusine indica (ELEIN), 90%; in the assay on Lolium perenne (LOLPE) it was 60%; in [2], 80%; in assay [3] it was 80%; in assay [4], 70%. For the same compound, the values for the pest or weed control at 500 g/ha (in assay [5]; with Setaia fabei (SETFA); in [6]) were 80%, 80% and 90%, respectively.
In the case of `O=S(=O)(O)CCCC[n+]1ccc(-c2ncco2)cn1` [Compound A68], the “Control of weed species after post-emergence application, AMAPA (100=total damage to plant; 0=no damage to plant)” value in [1] is on record as 100. Moreover, the “Control of weed species after post-emergence application, ELEIN (100=total damage to plant; 0=no damage to plant)” value in the assay with Eleusine indica (ELEIN) amounted to 70. Moreover, the “Control of weed species after post-emergence application, LOLPE (100=total damage to plant; 0=no damage to plant)” value in the assay on Lolium perenne (LOLPE) came to 70. Further, in assay [2], the “Control of weed species after post-emergence application, CHEAL (100=total damage to plant; 0=no damage to plant)” value came out at 90. In assay [3], the “Control of weed species after post-emergence application, EPHHL (100=total damage to plant; 0=no damage to plant)” value was found to be 90. In assay [4], the “Control of weed species after post-emergence application, ECHCG (100=total damage to plant; 0=no damage to plant)” value stood at 60. Moreover, in assay [5], the “Control of weed species after post-emergence application, IPOHE (100=total damage to plant; 0=no damage to plant)” value amounted to 50. For the same compound, the “Control of weed species after post-emergence application, SETFA (100=total damage to plant; 0=no damage to plant)” value in the assay on Setaia fabei (SETFA) was 80. Moreover, in assay [6], the “Control of weed species after post-emergence application, DIGSA (100=total damage to plant; 0=no damage to plant)” value stood at 70.
In the case of `O=C(O)C[n+]1ccc(-c2ncco2)cn1` [Compound A71], the pest or weed control at 500 g/ha in [1] was found to be 100%; in the assay on Eleusine indica (ELEIN), 100%; with Lolium perenne (LOLPE) it was 80%; in assay [2], 90%; in assay [3] it was 90%; in assay [4] it was 100%. The pest or weed control at 500 g/ha was 60% in [5], 90% in the assay on Setaia fabei (SETFA) and 90% in assay [6].
For `CS(=O)(=O)[N-]C(=O)C[n+]1ccc(-c2ncco2)cn1` [Compound A72], the pest or weed control at 500 g/ha in assay [1] worked out at 90%; with Eleusine indica (ELEIN) it was 80%; in the assay on Lolium perenne (LOLPE), 40%; in [2], 70%; in assay [3], 70%; in assay [4], 40%. Further, the values for the pest or weed control at 500 g/ha (in assay [5]; in the assay with Setaia fabei (SETFA); in [6]) were 70%, 60% and 60%, respectively.
For the compound `O=S(=O)([O-])NCC[n+]1ccc(-c2ncco2)cn1` [Compound A73], the pest or weed control at 500 g/ha in assay [1] was 80%; in the assay on Eleusine indica (ELEIN) it was 70%; in the assay with Lolium perenne (LOLPE) it was 10%; in assay [2], 70%; in assay [3] it was 50%; in assay [4], 50%. Besides, the pest or weed control at 500 g/ha in assay [5] stood at 30%; in the assay with Setaia fabei (SETFA), 60%; in [6], 70%.
With `CS(=O)(=O)C[N-]C(=O)CCC[n+]1ccc(-c2ncco2)cn1` [Compound A74], the pest or weed control at 500 g/ha in assay [1] was 100%; with Eleusine indica (ELEIN), 100%; in the assay with Lolium perenne (LOLPE), 60%; in [2], 90%; in [3] it was 70%; in assay [4], 40%. Also, the pest or weed control at 500 g/ha in assay [5] was 80%; with Setaia fabei (SETFA), 80%; in [6], 90%.
Consider `COP(=O)(CCC[n+]1ccc(-c2ncco2)cn1)OC.[Br-]` [Compound A76], for which the “Control of weed species after post-emergence application, AMAPA (100=total damage to plant; 0=no damage to plant)” value in assay [1] worked out at 30. Further, the “Control of weed species after post-emergence application, ELEIN (100=total damage to plant; 0=no damage to plant)” value in the assay on Eleusine indica (ELEIN) is recorded as 70. Moreover, the “Control of weed species after post-emergence application, LOLPE (100=total damage to plant; 0=no damage to plant)” value in the assay with Lolium perenne (LOLPE) was found to be 30. The “Control of weed species after post-emergence application, CHEAL (100=total damage to plant; 0=no damage to plant)” value in assay [2] is given as 20. Moreover, the “Control of weed species after post-emergence application, EPHHL (100=total damage to plant; 0=no damage to plant)” value in [3] was 40. In assay [4], the “Control of weed species after post-emergence application, ECHCG (100=total damage to plant; 0=no damage to plant)” value stood at 30. Besides, the “Control of weed species after post-emergence application, IPOHE (100=total damage to plant; 0=no damage to plant)” value in [5] stood at 30. Also, the “Control of weed species after post-emergence application, SETFA (100=total damage to plant; 0=no damage to plant)” value in the assay on Setaia fabei (SETFA) is reported as 40. The “Control of weed species after post-emergence application, DIGSA (100=total damage to plant; 0=no damage to plant)” value in assay [6] came out at 60.
With `CC(CNS(=O)(=O)[O-])[n+]1ccc(-c2ncco2)cn1` (stereo not drawn) [Compound A83], the pest or weed control at 500 g/ha in assay [1] was 100%; in the assay on Eleusine indica (ELEIN), 70%; with Lolium perenne (LOLPE) it was 50%; in assay [2] it was 70%; in assay [3], 70%; in assay [4], 60%. For the same compound, the pest or weed control at 500 g/ha was determined as 40% in assay [5], 60% in the assay with Setaia fabei (SETFA) and 60% in assay [6].
With `O=S(=O)([O-])CC(O)C[n+]1ccc(-c2ncco2)cn1` (stereo not drawn) [Compound A84], the pest or weed control at 500 g/ha was 100% in assay [1]; 70% with Eleusine indica (ELEIN); 50% in the assay with Lolium perenne (LOLPE); 90% in assay [2]; 90% in assay [3]; 70% in assay [4]. The pest or weed control at 500 g/ha in assay [5] is 40%; in the assay on Setaia fabei (SETFA), 50%; in assay [6] it was 70%.
Consider `CCOP(=O)(O)CC[n+]1ccc(-c2ncco2)cn1` [Compound A85], for which the pest or weed control at 500 g/ha in [1] turned out to be 10%; in the assay with Eleusine indica (ELEIN) it was 30%; in the assay with Lolium perenne (LOLPE), 10%; in [2], 0%; in [3], 20%; in assay [4] it was 20%. In addition, the pest or weed control at 500 g/ha stood at 30% in assay [5], 20% in the assay with Setaia fabei (SETFA) and 40% in [6].
As to `COP(=O)(O)CCC[n+]1ccc(-c2ncco2)cn1` [Compound A86], the pest or weed control at 500 g/ha in [1] was 40%; in the assay with Eleusine indica (ELEIN), 20%; in the assay on Lolium perenne (LOLPE), 20%; in [2], 30%; in [3], 30%; in [4], 10%. In addition, the pest or weed control at 500 g/ha in assay [5] is 40%; with Setaia fabei (SETFA) it was 20%; in [6] it was 30%.
For the compound `COC(=O)C[n+]1ccc(-c2ncn(C)n2)cn1` [Compound A87], the pest or weed control at 500 g/ha in [1] was 80%; in the assay with Eleusine indica (ELEIN), 80%; with Lolium perenne (LOLPE), 0%; in assay [2], 20%; in [3], 80%; in assay [4], 50%. The pest or weed control at 500 g/ha in assay [5] was found to be 10%; with Setaia fabei (SETFA), 40%; in assay [6], 90%.
Regarding `CC(C[n+]1ccc(-c2ncco2)cn1)C(=O)O` (stereo not drawn) [Compound A88], the pest or weed control at 500 g/ha worked out at 100% in [1]; 30% in the assay with Eleusine indica (ELEIN); 30% in the assay with Lolium perenne (LOLPE); 100% in assay [2]; 50% in assay [3]; 80% in [4]. The pest or weed control at 500 g/ha was determined as 30% in [5], 60% in the assay with Setaia fabei (SETFA) and 70% in [6].
